This note sets out measurements from patent publication US9598433B2, “Hepatitis C virus inhibitors” (BRISTOL-MYERS SQUIBB COMPANY, priority 2012, dated 2017).

Each structure is given as a SMILES string. Read-outs that look alike come from different tables or passages of the source.

Assay [1] deals with HCV genotype 1a (H77 strain) replicon in HUH-7 cells. Put plainly: HCV replicon luciferase reporter assay, genotype 1a. Format: cell-based. Conditions: Hepatitis C virus, 72 h, genotype 1a replicon, 3 days incubation. The source says:
(§1) An HCV replicon whole cell system was established as described by Lohmann V, Korner F, Koch J, Herian U, Theilmann L, Bartenschlager R., Science 285(5424):110-3 (1999) and modified to introduce a luciferase reporter, as first described by Krieger et al (Krieger N, Lohmann V, and Bartenschlager R, J. Virol. 75(10):4614-4624 (2001)). CDNA encoding a humanized form of the Renilla luciferase gene and a linker sequence fused directly to the 3′-end of the luciferase gene were introduced into the replicon construct using an Ascl restriction site located in core, directly upstream of the neomycin marker gene. The adaptive mutation at position 1179 (serine to isoleucine) was also introduced (Blight K J, Kolykhalov, A A, Rice, C M, Science 290(5498):1972-1974). A stable cell line constitutively expressing this HCV replicon construct was generated by first linearizing plasmid DNAs with ScaI. RNA transcripts were synthesized in vitro using the T7 MegaScript transcription kit (Ambion, Austin, Tex.) according to manufacturer's directions. In vitro transcripts of the cDNA were transfected into the human hepatoma cell line, HUH-7. […] Resulting cell lines were characterized for positive and negative strand RNA production and protein production over time.
A stable HCV replicon luciferase reporter cell line representing the genotype 1a H77 strain (Yanagi M, Purcell R H, Emerson S U, et al. Transcripts from a single full-length cDNA clone of hepatitis C virus are infectious when directly transfected into the liver of a chimpanzee. Proc Natl Acad Sci USA 1997; 94(16):8738-8743) was generated as described previously for the genotype 1b(Con1) replicon luciferase cell line. The replicon construct was modified by introducing mutations were introduced into the genes encoding the NS3 helicase domain (proline replaced by leucine at position 1496) and NS5A (serine to isoleucine at position 2204) to improve replication in cell culture.
(§2) HCV replicon luciferase assays were developed to monitor the inhibitory effects of compounds described in the disclosure on HCV genotypes 1a and 1b viral replication. HUH-7 cells, constitutively expressing the HCV replicon, were grown in Dulbecco's Modified Eagle Media (DMEM) (Gibco-BRL) containing 10% Fetal calf serum (FCS) (Sigma) and 1 mg/mL G418 (Gibco-BRL). Compounds were serially diluted 3 folds in DMSO for a twenty-point titration and subsequently transferred to sterile 384-well tissue-culture treated plates (Corning cat #3571). The plates were then seeded with 50 μL of cells at a density of 3.0×10^3 cells/well in DMEM containing 4% FCS (final DMSO concentration at 0.5%). After 3 days incubation at 37° C., cells were analyzed for Renilla Luciferase activity using the EnduRen as substrate (Promega cat #E6485). The EnduRen substrate was diluted in DMEM and then added to the plates to a final concentration of 7.5 μM. The plates were incubated for 2 hrs at 37° C. and then read immediately for 30 seconds with Viewlux Imager (PerkinElmer) using a luminescence program. To assess cytotoxicity of compounds, CC50 values were generated by multiplexing the EnduRen-containing plates with Cell Titer-Blue (Promega, cat # G8082). Cell-Titer Blue (3 μL) was added to each well and incubated for 8 hrs at 37° C. The fluorescence signal from each well was read, with an excitation wavelength at 525/10 nm and an emission wavelength of 598/10 nm, using the Viewlux Imager.
(§3) The EC50 values for compounds were calculated by using a four-parameter logistic equation: y=A+((B−A)/(1+((C/x)^D))), where A and B denotes minimal and maximal % inhibition, respectively, C is the EC50, D is the hill slope and x represents compound concentration.

The test system of assay [2] is HCV genotype 1b (Con1) replicon in HUH-7 cells. Kind of assay: HCV replicon luciferase reporter assay, genotype 1b. Type of assay: cell-based. The settings on record: Hepatitis C virus, 72 h, genotype 1b replicon, 3 days incubation.
From the text: as §1, §2, §3

In the case of `COc1cc2ccnc(O[C@@H]3C[C@H]4C(=O)N[C@]5(C(=O)NS(=O)(=O)C6(C)CC6)C[C@H]5/C=C\CC[C@@H](C)O[C@@H](C)[C@H](NC(=O)OC(C)(C)C(F)(F)F)C(=O)N4C3)c2cc1F` [Compound 2005, 1,1,1-trifluoro-2-methylpropan-2-yl ((2R,6S,7S,9R,13aS,14aR,16aS,Z)-2-((7-fluoro-6-methoxyisoquinolin-1-yl)oxy)-7,9-dimethyl-14a-(((1-methylcyclopropyl)sulfonyl)carbamoyl)-5,16-dioxo-2,3,5,6,7,9,10,11,13a,14,14a,15,16,16a-tetradecahydro-1H-cyclopropa[i]pyrrolo[1,2-e][1,5,8]oxadiazacyclopentadecin-6-yl)carbamate], the EC50 in assay [1] (read-out: LE_1a (EC50, range)) was 1.01 to 5 nM; in assay [2] (read-out: LE_1b (EC50, range)), 0.1 to 0.5 nM.
On the same counts, the results for `COc1cc2ccnc(O[C@@H]3C[C@H]4C(=O)N[C@]5(C(=O)NS(=O)(=O)C6(C)CC6)C[C@H]5/C=C\CC[C@@H](C)O[C@@H](C)[C@H](NC(=O)OC(C)(C)C(C)(F)F)C(=O)N4C3)c2cc1F` [Compound 2006, 3,3-difluoro-2-methylbutan-2-yl ((2R,6S,7S,9R,13aS,14aR,16aS,Z)-2-((7-fluoro-6-methoxyisoquinolin-1-yl)oxy)-7,9-dimethyl-14a-(((1-methylcyclopropyl)sulfonyl)carbamoyl)-5,16-dioxo-2,3,5,6,7,9,10,11,13a,14,14a,15,16,16a-tetradecahydro-1H-cyclopropa[i]pyrrolo[1,2-e][1,5,8]oxadiazacyclopentadecin-6-yl)carbamate] are 1.01 to 5 nM and 0.1 to 0.5 nM.
For `COc1cnc(O[C@@H]2C[C@H]3C(=O)N[C@]4(C(=O)NS(=O)(=O)C5(C)CC5)C[C@H]4/C=C\CC[C@@H](C)O[C@@H](C)[C@H](NC(=O)OC(C)(C)C(F)(F)F)C(=O)N3C2)c2cc(F)ccc12` [Compound 2007, 1,1,1-trifluoro-2-methylpropan-2-yl ((2R,6S,7S,9R,13aS,14aR,16aS,Z)-2-((7-fluoro-4-methoxyisoquinolin-1-yl)oxy)-7,9-dimethyl-14a-(((1-methylcyclopropyl)sulfonyl)carbamoyl)-5,16-dioxo-2,3,5,6,7,9,10,11,13a,14,14a,15,16,16a-tetradecahydro-1H-cyclopropa[i]pyrrolo[1,2-e][1,5,8]oxadiazacyclopentadecin-6-yl)carbamate], the EC50 in assay [1] (read-out: LE_1a (EC50)) was 0.63 nM; in assay [1] (read-out: LE_1a (EC50, range)) it was 0.51 to 1 nM; in assay [2] (read-out: LE_1b (EC50)), 0.24 nM; in assay [2] (read-out: LE_1b (EC50, range)) it was 0.1 to 0.5 nM.
For `COc1cnc(O[C@@H]2C[C@H]3C(=O)N[C@]4(C(=O)NS(=O)(=O)C5(C)CC5)C[C@H]4/C=C\CC[C@@H](C)O[C@@H](C)[C@H](NC(=O)OC(C)(C)C(C)(F)F)C(=O)N3C2)c2cc(F)ccc12` [Compound 2008, 3,3-difluoro-2-methylbutan-2-yl ((2R,6S,7S,9R,13aS,14aR,16aS,Z)-2-((7-fluoro-4-methoxyisoquinolin-1-yl)oxy)-7,9-dimethyl-14a-(((1-methylcyclopropyl)sulfonyl)carbamoyl)-5,16-dioxo-2,3,5,6,7,9,10,11,13a,14,14a,15,16,16a-tetradecahydro-1H-cyclopropa[i]pyrrolo[1,2-e][1,5,8]oxadiazacyclopentadecin-6-yl)carbamate], the EC50 in assay [1] (read-out: LE_1a (EC50, range)) fell in the range of 0.51 to 1 nM; in assay [2] (read-out: LE_1b (EC50, range)), 0.1 to 0.5 nM.
`C[C@@H]1CC/C=C\[C@@H]2C[C@@]2(C(=O)NS(=O)(=O)C2(C)CC2)NC(=O)[C@@H]2C[C@@H](Oc3nccc4c5c(ccc34)OCCO5)CN2C(=O)[C@@H](NC(=O)OC(C)(C)C(F)(F)F)[C@H](C)O1` [Compound 2009, 1,1,1-trifluoro-2-methylpropan-2-yl ((2R,6S,7S,9R,13aS,14aR,16aS,Z)-2-((2,3-dihydro-[1,4]dioxino[2,3-f]isoquinolin-7-yl)oxy)-7,9-dimethyl-14a-(((1-methylcyclopropyl)sulfonyl)carbamoyl)-5,16-dioxo-2,3,5,6,7,9,10,11,13a,14,14a,15,16,16a-tetradecahydro-1H-cyclopropa[i]pyrrolo[1,2-e][1,5,8]oxadiazacyclopentadecin-6-yl)carbamate]: the EC50 in assay [1] (read-out: LE_1a (EC50, range)) was in the range of 1.01 to 5 nM; in assay [2] (read-out: LE_1b (EC50, range)), 0.51 to 1 nM.
In the case of `C[C@@H]1CC/C=C\[C@@H]2C[C@@]2(C(=O)NS(=O)(=O)C2(C)CC2)NC(=O)[C@@H]2C[C@@H](Oc3nccc4c5c(ccc34)OCCO5)CN2C(=O)[C@@H](NC(=O)OC(C)(C)C(C)(F)F)[C@H](C)O1` [Compound 2010, 3,3-difluoro-2-methylbutan-2-yl ((2R,6S,7S,9R,13aS,14aR,16aS,Z)-2-((2,3-dihydro[1,4]dioxino[2,3-f]isoquinolin-7-yl)oxy)-7,9-dimethyl-14a-(((1-methylcyclopropyl)sulfonyl)carbamoyl)-5,16-dioxo-2,3,5,6,7,9,10,11,13a,14,14a,15,16,16a-tetradecahydro-1H-cyclopropa[i]pyrrolo[1,2-e][1,5,8]oxadiazacyclopentadecin-6-yl)carbamate], the EC50 in assay [1] (read-out: LE_1a (EC50, range)) was in the range of 1.01 to 5 nM; in assay [2] (read-out: LE_1b (EC50, range)), 0.51 to 1 nM.
Consider `COc1ccc2c(O[C@@H]3C[C@H]4C(=O)N[C@]5(C(=O)NS(=O)(=O)C6(C)CC6)C[C@H]5/C=C\CC[C@@H](C)O[C@@H](C)[C@H](NC(=O)OC(C)(C)C(F)(F)F)C(=O)N4C3)nc(-c3ccc(OC(C)C)cn3)cc2c1` [Compound 2011, 1,1,1-trifluoro-2-methylpropan-2-yl ((2R,6S,7S,9R,13a5,14aR,16aS,Z)-2-((3-(5-isopropoxypyridin-2-yl)-6-methoxyisoquinolin-1-yl)oxy)-7,9-dimethyl-14a-(((1-methylcyclopropyl)sulfonyl)carbamoyl)-5,16-dioxo-2,3,5,6,7,9,10,11,13a,14,14a,15,16,16a-tetradecahydro-1H-cyclopropa[i]pyrrolo[1,2-e][1,5,8]oxadiazacyclopentadecin-6-yl)carbamate], for which the EC50 was 0.51 to 1 nM in assay [1] (read-out: LE_1a (EC50, range)) and 0.1 to 0.5 nM in assay [2] (read-out: LE_1b (EC50, range)).
Regarding `COc1ccc2c(O[C@@H]3C[C@H]4C(=O)N[C@]5(C(=O)NS(=O)(=O)C6(C)CC6)C[C@H]5/C=C\CC[C@@H](C)O[C@@H](C)[C@H](NC(=O)OC(C)(C)C(C)(F)F)C(=O)N4C3)nc(-c3ccc(OC(C)C)cn3)cc2c1` [Compound 2012, 3,3-difluoro-2-methylbutan-2-yl ((2R,6S,7S,9R,13a5,14aR,16aS,Z)-2-((3-(5-isopropoxypyridin-2-yl)-6-methoxyisoquinolin-1-yl)oxy)-7,9-dimethyl-14a-(((1-methylcyclopropyl)sulfonyl)carbamoyl)-5,16-dioxo-2,3,5,6,7,9,10,11,13a,14,14a,15,16,16a-tetradecahydro-1H-cyclopropa[i]pyrrolo[1,2-e][1,5,8]oxadiazacyclopentadecin-6-yl)carbamate], the EC50 was 0.1 to 0.5 nM in assay [1] (read-out: LE_1a (EC50, range)) and 0.1 to 0.5 nM in assay [2] (read-out: LE_1b (EC50, range)).
For the molecule `COc1ccc2c(O[C@@H]3C[C@H]4C(=O)N[C@]5(C(=O)NS(=O)(=O)C6(CF)CC6)C[C@H]5/C=C\CC[C@@H](C)O[C@@H](C)[C@H](NC(=O)OC(C)(C)C(F)(F)F)C(=O)N4C3)nccc2c1` [Compound 2013, 1,1,1-trifluoro-2-methylpropan-2-yl ((2R,6S,7S,9R,13a5,14aR,16aS,Z)-14a-(((1-(fluoromethyl)cyclopropyl)sulfonyl)carbamoyl)-2-((6-methoxyisoquinolin-1-yl)oxy)-7,9-dimethyl-5,16-dioxo-2,3,5,6,7,9,10,11,13a,14,14a,15,16,16a-tetradecahydro-1H-cyclopropa[i]pyrrolo[1,2-e][1,5,8]oxadiazacyclopentadecin-6-yl)carbamate], the EC50 in assay [1] (read-out: LE_1a (EC50, range)) fell in the range of 1.01 to 5 nM; in assay [2] (read-out: LE_1b (EC50, range)) it was 0.51 to 1 nM.
